# Laboratory results taken from US4559323A, “A41030 Antibiotics” (Eli Lilly and Company, priority 1984, dated 1985).
# Read-outs that look alike come from different tables or passages of the source.
# How the values were obtained:
# Salmonella typhi = assay: Agar-dilution MIC; type: cell-based; settings: Table 17, 24 hours
# Fusobacterium symbiosum = assay: Agar-dilution MIC (anaerobes); type: cell-based; settings: Table 14; Fusobacterium symbiosum 1470
# [1] = test system: Peptostreptococcus anaerobius; assay: Agar-dilution MIC (anaerobes); type: cell-based
# Clostridium septicum = assay: Agar-dilution MIC (anaerobes); type: cell-based; settings: Table 14; Clostridium septicum 1128
# [2] = test system: Peptococcus asaccharolyticus; assay: Agar-dilution MIC (anaerobes); type: cell-based; settings: Table 15
# Protocol: (§1) The MIC values were determined by the agar-dilution method, and are recorded in Table 15, which follows.
# Clostridium perfringens = type: cell-based; settings: Table 14; Clostridium perfringens 81
# [3] = Electrometric titration (pKa); type: physicochemical; settings: electrometric titration in 66% dimethylformamide in water
# Bacteroides vulgatis [4] = assay: Agar-dilution MIC (anaerobes); type: cell-based; settings: Table 14; Bacteroides vulgatis 1211
# Bacteroides vulgatis [5] = assay: Agar-dilution MIC (anaerobes); type: cell-based; settings: Table 12; 24-hour; B. vulgatis 1563
# Excerpt: (§2) The A41030 antibiotics, factors A, B, and C, are active against a genus of anaerobic bacteria identified as Bacteroides sp., the 24-hour MIC values being determined by the agar-dilution method, and are set forth in Table 12, which follows.
# Bacteroides corrodens = assay: Agar-dilution MIC (anaerobes); type: cell-based; settings: Table 12; 24-hour; B. corrodens 1874
# Excerpt: as §2
# Hemophilus influenzae = assay: Agar-dilution MIC; type: cell-based
# Streptococcus pyogenes = assay: Agar-dilution MIC; type: cell-based
# Excerpt: (§3) The agar-dilution procedure described by the International Collaborative study (ICS) group was used to determine the minimum inhibitory concentrations (MIC's).
# [6] = test system: Streptococcus sp. (Group D); assay: Agar-dilution MIC; type: cell-based
# Excerpt: as §3
# Solubility in solvents = type: physicochemical; settings: solvents as named
# Excerpt: The seven antibiotic factors are recovered from the fermentation and are obtained as a mixture, the A41030 complex. It will be recognized that the ratio of the factors in the A41030 complex will vary, depending upon the fermentation conditions used. The individual factors […], and G are separated and isolated as individual compounds, as hereinafter described.
# Pc. constellatus = assay: Agar-dilution MIC (anaerobes); type: cell-based, Peptococcus constellatus; settings: Table 15; Pc. constellatus 1468
# Protocol: as §1
# Peptococcus prevoti = assay: Agar-dilution MIC (anaerobes); type: cell-based
# Bacteroides fragilis = assay: Agar-dilution MIC (anaerobes); type: cell-based
# Excerpt: as §3
# Clostridium difficile = type: cell-based; settings: Table 14; Clostridium difficile 2994
# B. thetaiotaomicron = type: cell-based
# Excerpt: as §3
# S. pyogenes [7] = assay: In vivo oral activity against S. pyogenes in mice
# [8] = test system: Fusobacterium necrophorum; assay: Agar-dilution MIC (anaerobes); type: cell-based; settings: Table 14; Fusobacterium necrophorum 6054A
# Staph. aureus = assay: Experimental bacterial infection in mice, subcutaneous ED50; type: in vivo; settings: two doses subcutaneously
# Protocol: (§4) All of the A41030 factors tested have shown in vivo antimicrobial activity against experimental bacterial infections. When two doses of test compound were administered subcutaneously to mice in illustrative infections, the activity observed is measured as an ED50 value [effective dose in mg./kg. to protect fifty percent of the test animals: See Warren Wick, et al., J. Bacteriol. 81, 233-235 (1961)].
# S. pyogenes [9] = assay: as above; type: in vivo; settings: two doses subcutaneously
# Protocol: as §4
# S. pneumoniae = assay: as above; type: in vivo; settings: two doses subcutaneously
# Protocol: as §4
# [10] = test system: Peptostreptococcus intermedius; assay: Agar-dilution MIC (anaerobes); type: cell-based
compound,measurement,setting,value
NC1C(=O)NC2Cc3ccc(c(Cl)c3)Oc3cc4cc(c3O)Oc3ccc(cc3Cl)C(O)C3NC(=O)C(NC(=O)C4NC(=O)C(NC2=O)c2cc(O)cc(c2)Oc2cc1ccc2O)c1cc(Cl)c(O)c(c1)-c1c(O)cc(O)cc1C(C(=O)O)NC3=O (stereo not shown) [A41030 factor A],MIC,Salmonella typhi; Salmonella typhi 1335,> 128 µg/mL
same,MIC,Salmonella typhi; Salmonella typhi X514,> 128 µg/mL
same,MIC,Fusobacterium symbiosum,1.0 µg/mL
same,MIC,"[1]; Table 14, Peptostreptococcus anaerobius 1428",≤ 0.25 µg/mL
same,MIC,"[1]; Table 15, Ps. anaerobius 8",0.5 µg/mL
same,MIC,"[1]; Table 15, Ps. anaerobius 52",0.5 µg/mL
same,MIC,"[1]; Table 15, Ps. anaerobius 59",0.5 µg/mL
same,MIC,"[1]; Table 15, Ps. anaerobius 1418",≤ 0.03 µg/mL
same,MIC,"[1]; Table 15, Ps. anaerobius 1428",0.5 µg/mL
same,MIC,"[1]; Table 15, Ps. anaerobius 1451",0.5 µg/mL
same,MIC,"[1]; Table 15, Ps. anaerobius 1477",0.5 µg/mL
same,MIC,Clostridium septicum,2 µg/mL
same,MIC,[2]; Pc. asaccharolyticus 1302,≤ 0.03 µg/mL
same,MIC,[2]; Pc. asaccharolyticus 1344,0.5 µg/mL
same,MIC,Clostridium perfringens,0.5 µg/mL
same,"pKa, first titratable group",[3],about 5.53
same,"pKa, second titratable group",[3],~7.60
same,"pKa, third titratable group",[3],~10.37
same,MIC,Bacteroides vulgatis [4],32 µg/mL
same,MIC,Bacteroides vulgatis [5],32 µg/mL
same,MIC,Bacteroides corrodens,32 µg/mL
same,MIC,"Hemophilus influenzae; Table 9, strain 75-312",8 µg/mL
same,MIC,"Hemophilus influenzae; Table 9, strain 75-313",16 µg/mL
same,MIC,"Hemophilus influenzae; Table 9, strain 75-364",16 µg/mL
same,MIC,"Hemophilus influenzae; Table 9, strain 75-465",32 µg/mL
same,MIC,"Hemophilus influenzae; Table 9, strain 75-19300",16 µg/mL
same,MIC,"Hemophilus influenzae; Table 9, strain 75-90383",16 µg/mL
same,MIC,"Hemophilus influenzae; Table 9, strain 4842",8 µg/mL
same,MIC,"Hemophilus influenzae; Table 9, strain A. Hall",16 µg/mL
same,MIC,"Hemophilus influenzae; Table 9, strain Bruno",16 µg/mL
same,MIC,"Hemophilus influenzae; Table 9, strain G. Newton",32 µg/mL
same,MIC,"Hemophilus influenzae; Table 9, strain Howard",16 µg/mL
same,MIC,"Hemophilus influenzae; Table 9, strain Miller",16 µg/mL
same,MIC,"Hemophilus influenzae; Table 9, strain O. Steele",16 µg/mL
same,MIC,"Hemophilus influenzae; Table 9, strain P. Wylie",16 µg/mL
same,MIC,"Hemophilus influenzae; Table 9, strain R251",16 µg/mL
same,MIC,"Hemophilus influenzae; Table 9, strain R259",16 µg/mL
same,MIC,"Hemophilus influenzae; Table 9, strain R272",16 µg/mL
same,MIC,"Hemophilus influenzae; Table 9, strain R274",16 µg/mL
same,MIC,"Hemophilus influenzae; Table 9, strain S. Ford",16 µg/mL
same,MIC,"Hemophilus influenzae; Table 17, 24 hours, Haemophilus influenzae 251",2 µg/mL
same,MIC,"Hemophilus influenzae; Table 17, 24 hours, Haemophilus influenzae Brun",8 µg/mL
same,MIC,"Hemophilus influenzae; Table 18, 24 hours, Haemophilus influenzae 76",4 µg/mL
same,MIC,"Hemophilus influenzae; Table 18, 24 hours, Haemophilus influenzae 312",2 µg/mL
same,MIC,"Hemophilus influenzae; Table 18, 24 hours, Haemophilus influenzae 4842",2 µg/mL
same,MIC,"Hemophilus influenzae; Table 18, 24 hours, Haemophilus influenzae 16836",4 µg/mL
same,MIC,"Hemophilus influenzae; Table 18, 24 hours, Haemophilus influenzae Bond",2 µg/mL
same,MIC,"Hemophilus influenzae; Table 18, 24 hours, Haemophilus influenzae C.L.",4 µg/mL
same,MIC,"Hemophilus influenzae; Table 18, 24 hours, Haemophilus influenzae Mx366",2 µg/mL
same,MIC,"Hemophilus influenzae; Table 18, 24 hours, Haemophilus influenzae Mx371",2 µg/mL
same,MIC,"Streptococcus pyogenes; Table 11, S. pyogenes 9943",0.25 µg/mL
same,MIC,"Streptococcus pyogenes; Table 11, S. pyogenes 10389",0.25 µg/mL
same,MIC,"Streptococcus pyogenes; Table 11, S. pyogenes 12344",0.5 µg/mL
same,MIC,"Streptococcus pyogenes; Table 11, S. pyogenes C203",0.25 µg/mL
same,MIC,"Streptococcus pyogenes; Table 11, S. pyogenes M-6517",0.25 µg/mL
same,MIC,"Streptococcus pyogenes; Table 17, 24 hours, Streptococcus pyogenes C203",0.5 µg/mL
same,MIC,"Streptococcus pyogenes; Table 18, 24 hours, Streptococcus pyogenes C203",0.25 µg/mL
same,MIC,"[6]; Table 11, Streptococcus sp. (Group D) 238",0.25 µg/mL
same,MIC,"[6]; Table 11, Streptococcus sp. (Group D) 282",0.25 µg/mL
same,MIC,"[6]; Table 11, Streptococcus sp. (Group D) 9901",0.25 µg/mL
same,MIC,"[6]; Table 11, Streptococcus sp. (Group D) 12253F",0.25 µg/mL
same,MIC,"[6]; Table 11, Streptococcus sp. (Group D) Guze",0.25 µg/mL
same,MIC,"[6]; Table 17, 24 hours, Streptococcus sp. Group D 9960",2 µg/mL
same,MIC,"[6]; Table 17, 24 hours, Streptococcus sp. Group D X66",1 µg/mL
same,MIC,"[6]; Table 18, 24 hours, Streptococcus sp. Group D 2041",0.5 µg/mL
same,MIC,"[6]; Table 18, 24 hours, Streptococcus sp. Group D 2058",0.5 µg/mL
same,MIC,"[6]; Table 18, 24 hours, Streptococcus sp. Group D 8043",0.25 µg/mL
same,MIC,"[6]; Table 18, 24 hours, Streptococcus sp. Group D 9901",1 µg/mL
same,MIC,"[6]; Table 18, 24 hours, Streptococcus sp. Group D 9960",0.5 µg/mL
same,MIC,"[6]; Table 18, 24 hours, Streptococcus sp. Group D 12253F",0.25 µg/mL
same,MIC,"[6]; Table 18, 24 hours, Streptococcus sp. Group D Mx161",0.25 µg/mL
same,MIC,"[6]; Table 18, 24 hours, Streptococcus sp. Group D X66",0.25 µg/mL
same,Solubility,Solubility in solvents,"soluble in alcohol-water mixtures, in dimethylsulfoxide, in dimethylformamide, in dimethylsulfoxide-water mixtures, in dimethylformamide-water mixtures, in dilute aqueous acid, and in dilute aqueous base"
same,MIC,Pc. constellatus,0.5 µg/mL
same,MIC,"Peptococcus prevoti; Table 14, Peptococcus prevoti 1281",≤ 0.25 µg/mL
same,MIC,"Peptococcus prevoti; Table 15, Pc. prevoti 1281",0.5 µg/mL
same,MIC,"Peptococcus prevoti; Table 15, Pc. prevoti 1293",1.0 µg/mL
same,MIC,"Peptococcus prevoti; Table 15, Pc. prevoti 1407",1.0 µg/mL
same,MIC,"Bacteroides fragilis; Table 12, 24-hour, B. fragilis 2",64 µg/mL
same,MIC,"Bacteroides fragilis; Table 12, 24-hour, B. fragilis 9",64 µg/mL
same,MIC,"Bacteroides fragilis; Table 12, 24-hour, B. fragilis 103",32 µg/mL
same,MIC,"Bacteroides fragilis; Table 12, 24-hour, B. fragilis 104",32 µg/mL
same,MIC,"Bacteroides fragilis; Table 12, 24-hour, B. fragilis 106",64 µg/mL
same,MIC,"Bacteroides fragilis; Table 12, 24-hour, B. fragilis 107",32 µg/mL
same,MIC,"Bacteroides fragilis; Table 12, 24-hour, B. fragilis 108",32 µg/mL
same,MIC,"Bacteroides fragilis; Table 12, 24-hour, B. fragilis 110",64 µg/mL
same,MIC,"Bacteroides fragilis; Table 12, 24-hour, B. fragilis 111",32 µg/mL
same,MIC,"Bacteroides fragilis; Table 12, 24-hour, B. fragilis 112",64 µg/mL
same,MIC,"Bacteroides fragilis; Table 12, 24-hour, B. fragilis 113",32 µg/mL
same,MIC,"Bacteroides fragilis; Table 12, 24-hour, B. fragilis 1451",64 µg/mL
same,MIC,"Bacteroides fragilis; Table 12, 24-hour, B. fragilis 1470",64 µg/mL
same,MIC,"Bacteroides fragilis; Table 12, 24-hour, B. fragilis 1877",32 µg/mL
same,MIC,"Bacteroides fragilis; Table 12, 24-hour, B. fragilis 9032",64 µg/mL
same,MIC,"Bacteroides fragilis; Table 14, Bacteroides fragilis 111",128 µg/mL
same,MIC,"Bacteroides fragilis; Table 14, Bacteroides fragilis 1877",32 µg/mL
same,MIC,"Bacteroides fragilis; Table 14, Bacteroides fragilis 1936B",64 µg/mL
same,MIC,Clostridium difficile,32 µg/mL
same,MIC,"B. thetaiotaomicron; Table 12, 24-hour, B. thetaiotaomicron 1438",64 µg/mL
same,MIC,"B. thetaiotaomicron; Table 12, 24-hour, B. thetaiotaomicron 1900A",128 µg/mL
same,MIC,"B. thetaiotaomicron; Table 14, Bacteroides thetalotaomicron 1438",64 µg/mL
same,in vivo oral activity,S. pyogenes [7],> 300 mg./kg.X2
same,MIC,[8],8 µg/mL
same,ED50,Staph. aureus,1.4 mg/kg
same,ED50,S. pyogenes [9],2.8 mg/kg
same,ED50,S. pneumoniae,1.68 mg/kg
same,MIC,"[10]; Table 14, Peptostreptococcus intermedius 1264",1.0 µg/mL
same,MIC,"[10]; Table 15, Ps. intermedius 1264",≤ 0.03 µg/mL
same,MIC,"[10]; Table 15, Ps. intermedius 1524",0.5 µg/mL
same,MIC,"[10]; Table 15, Ps. intermedius 1624",1.0 µg/mL
